This is an account of results in US20250177366A1, “COMPOSITIONS AND METHODS FOR ALLEVIATING PAIN AND REDUCING ADVERSIVENESS OF STIMULI” (UNIVERSITY OF WASHINGTON, priority 2021, published 2025).

For test [1], the system named is larval zebrafish. Briefly: AITC aversion assay (chemical attraction/aversion, AITC-infused agarose). It is filed as in vivo, Zebrafish (Danio rerio). The note with it: AITC 100 mM in agarose. From the text: Whether the effects of AS1 extended beyond noxious temperature sensation or could also impact other somatosensory modalities was next explored. To accomplish this, a chemical attraction/aversion assay where a thin layer of agarose was deposited along the edges of a square arena (Jordi et al., Sci. Adv. 2018; 4:1-15) were adapted. Along one wall, the agarose contained the chemical to be tested, while the other three walls were lined with control agarose. It was anticipated that a chemical gradient would be established as chemical diffused from the agarose into the surrounding water. Larvae were pre-incubated in either vehicle or AS1 and then added to the arena and the distance of each larva from the chemical-infused agarose was measured. In control experiments where all four walls of the arena were lined with agarose only, AS1 and vehicle-treated larvae were dispersed evenly throughout the arena (FIG. 3). […] When the nociceptive chemical AITC (100 mM, 10,000× maximal effective dose) was tested, vehicle-treated larvae swam away from the AITC source.
Chemical attraction/aversion assays. The agarose attraction/aversion assay was adapted from previously described experiments (Jordi et al., Sci. Adv. 2018; 4:1-15). For the AITC aversion assay, AITC and DMSO were added to molten 0.8% agarose to achieve a final concentration of 100 mM AITC and 2% DMSO. For the AS1 attraction/aversion assay, AS1 and DMSO were added to 0.8% molten agar to achieve final concentrations of 50 mM and 2%, respectively. To construct the test chambers, the lids of 10×10 cm square petri dishes (insert cat #and company) were lined on four sides with either the test (chemical-containing) or plain agarose (300 μL per side) and allowed to solidify. For all experiments, 30-40 randomly selected 6 dpf zebrafish were caught with a 10 mL pipette pump (Bel-Air Products, cat #: 13683C) equipped with a glass wide-bored Pasteur pipet (Fisher Scientific, cat #: 22-037-540) and deposited into a standard 10 cm diameter petri dish (Fisher Scientific, cat #: 07-202-031). As much E2 media as possible was carefully removed using the same pipette. For single incubation experiments, 30 mL of 1× solutions of the control or test chemical was added to each petri dish, and fish were incubated for 10 minutes at 28.5° C. For double incubation experiments, 15 mL of 1× solutions containing control (DMSO) or test chemicals was added to the larvae-containing petri dish. Following a ten minute incubation, 15 mL of the second incubation solution (1× control or test chemical +/−2× AS1) was added to the petri dish, and the fish were incubated for a second ten minute block. The final concentration of DMSO in all solutions was 1%. In all double-incubation experiments, the final concentration of AS1 was 5 μM unless otherwise noted. After completion of the last incubation period, the contents of each petri dish were poured into separate agarose-lined square dishes. Swimming behavior was immediately recorded for 20 minutes using the same high-definition camcorder in the thermal preference assays.

Test [2] has as its system larval zebrafish. Briefly: Thermal preference assay (28.5° C. vs 37.5° C.), non-sensitized. It counts as in vivo, Zebrafish (Danio rerio). How it is done:
Thermal preference assay. […] Once an entire plate was loaded with fish, the appropriate incubation solution was added. […] Following incubation in all experiments, the choice testing plate was transported to a dual solid-state heat/cool plate (AHP-1200° C. P; Teca) and centered such that half of each arena was positioned over each side of the heat/cool plate. […] Locomotor behavior was recorded using a Canon high-definition video camcorder suspended at a fixed position above the choice testing plate. Each trial was four minutes in duration.
For single-incubation assays (e.g. testing single chemicals), larval zebrafish were caught in 100 μL E2 media and 100 μL of the control (2% DMSO) or test chemical at 2× concentration was added to each well to achieve the final desired concentration. […] The final DMSO concentration in all solutions was 1%.

The mark [3] stands for this setting: 28.5 vs 37.5° C., dose-response 0-5 μM.

Bounds are passed on as bounds.

For the compound `CC(C)c1ccc(C(=O)Nc2ccncc2)cc1` [AS1, 4-propan-2-yl-N-pyridin-4-ylbenzamide], the “attraction/aversion to AITC source” value in the test on larval zebrafish [1] (1 μM AS1) was “unable to induce attraction to AITC”; in the test on larval zebrafish [1] (2.5 μM AS1), “largely replicated the effects of 5 μM AS1”; in the test with larval zebrafish [1] (5 μM AS1), “strongly preferred to be near the AITC source”. Further, the “zone-dependent locomotor activity (swimming velocity)” value in the test on larval zebrafish [2] (28.5 vs 37.5° C. zones, compared to vehicle-treated larvae) is on record as “inverted zone-dependent locomotor activity”. Also, the “concentration that eliminates preference for either zone” value in the test with larval zebrafish [2] (setting [3]) is 1.25 µM. For the same compound, the “concentrations that induce preference for the 37.5° C. zone” value in the test with larval zebrafish [2] (setting [3]) was greater than 2.5 µM. Besides, the “preference in acute heat aversion” value in the test on larval zebrafish [2] (28.5° vs 37.5° C., 5 μM AS1 (highest dose)) was “evoked strong preference for the nociceptive stimulus”. For the same compound, the “Reverses 28.5° C. Choice?” value in the test with larval zebrafish [2] (temperature preference 28.5° C. vs 37.5° C., larval zebrafish) is “Yes”.
